Active and inactive are the calls of the source.
What was measured:
[1] = target: Dual specificity mitogen-activated protein kinase kinase 2 (Homo sapiens, UniProt P36507); assay: Navigating the Kinome. Panel member name: MAP2K2; assay type: functional
[2] = target: G protein-coupled receptor kinase 5 (Homo sapiens, UniProt P34947); assay: Navigating the Kinome. Panel member name: GPRK5; assay type: functional
[3] = target: High affinity nerve growth factor receptor (Homo sapiens, UniProt P04629); assay type: functional;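 note: NTRK1 tested as one member of a kinome-wide profiling panel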
Sequence of High affinity nerve growth factor receptor (P04629 whole entry): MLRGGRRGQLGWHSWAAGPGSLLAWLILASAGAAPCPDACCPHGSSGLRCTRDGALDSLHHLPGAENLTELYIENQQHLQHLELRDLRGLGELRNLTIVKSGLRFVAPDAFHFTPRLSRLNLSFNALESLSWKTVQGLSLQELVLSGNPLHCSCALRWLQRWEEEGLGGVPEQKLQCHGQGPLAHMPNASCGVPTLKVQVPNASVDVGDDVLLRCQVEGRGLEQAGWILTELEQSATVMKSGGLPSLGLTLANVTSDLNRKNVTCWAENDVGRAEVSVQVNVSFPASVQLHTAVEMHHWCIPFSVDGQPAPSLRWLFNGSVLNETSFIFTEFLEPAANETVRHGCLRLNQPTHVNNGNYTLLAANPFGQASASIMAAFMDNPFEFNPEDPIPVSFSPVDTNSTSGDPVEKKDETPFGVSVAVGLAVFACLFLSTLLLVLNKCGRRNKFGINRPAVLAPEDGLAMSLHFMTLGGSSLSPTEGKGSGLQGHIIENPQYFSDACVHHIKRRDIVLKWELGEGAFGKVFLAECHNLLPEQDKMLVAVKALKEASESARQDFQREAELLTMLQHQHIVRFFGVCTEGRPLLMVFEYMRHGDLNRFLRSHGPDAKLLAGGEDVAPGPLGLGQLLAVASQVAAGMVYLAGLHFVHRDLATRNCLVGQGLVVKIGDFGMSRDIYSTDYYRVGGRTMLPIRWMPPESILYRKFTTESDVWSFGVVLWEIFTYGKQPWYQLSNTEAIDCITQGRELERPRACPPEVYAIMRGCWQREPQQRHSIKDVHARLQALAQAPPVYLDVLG

[4] = target: Tyrosine-protein kinase JAK3 (Homo sapiens, UniProt P52333); assay type: functional
[5] = target: Dual specificity protein kinase CLK4 (Homo sapiens, UniProt Q9HAZ1); assay type: functional
[6] = target: Vascular endothelial growth factor receptor 1 (Homo sapiens, UniProt P17948); assay type: functional;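 note: measured within a kinome-wide profiling panel, FLT1 as the panel member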
Sequence of Vascular endothelial growth factor receptor 1 (P17948 whole entry): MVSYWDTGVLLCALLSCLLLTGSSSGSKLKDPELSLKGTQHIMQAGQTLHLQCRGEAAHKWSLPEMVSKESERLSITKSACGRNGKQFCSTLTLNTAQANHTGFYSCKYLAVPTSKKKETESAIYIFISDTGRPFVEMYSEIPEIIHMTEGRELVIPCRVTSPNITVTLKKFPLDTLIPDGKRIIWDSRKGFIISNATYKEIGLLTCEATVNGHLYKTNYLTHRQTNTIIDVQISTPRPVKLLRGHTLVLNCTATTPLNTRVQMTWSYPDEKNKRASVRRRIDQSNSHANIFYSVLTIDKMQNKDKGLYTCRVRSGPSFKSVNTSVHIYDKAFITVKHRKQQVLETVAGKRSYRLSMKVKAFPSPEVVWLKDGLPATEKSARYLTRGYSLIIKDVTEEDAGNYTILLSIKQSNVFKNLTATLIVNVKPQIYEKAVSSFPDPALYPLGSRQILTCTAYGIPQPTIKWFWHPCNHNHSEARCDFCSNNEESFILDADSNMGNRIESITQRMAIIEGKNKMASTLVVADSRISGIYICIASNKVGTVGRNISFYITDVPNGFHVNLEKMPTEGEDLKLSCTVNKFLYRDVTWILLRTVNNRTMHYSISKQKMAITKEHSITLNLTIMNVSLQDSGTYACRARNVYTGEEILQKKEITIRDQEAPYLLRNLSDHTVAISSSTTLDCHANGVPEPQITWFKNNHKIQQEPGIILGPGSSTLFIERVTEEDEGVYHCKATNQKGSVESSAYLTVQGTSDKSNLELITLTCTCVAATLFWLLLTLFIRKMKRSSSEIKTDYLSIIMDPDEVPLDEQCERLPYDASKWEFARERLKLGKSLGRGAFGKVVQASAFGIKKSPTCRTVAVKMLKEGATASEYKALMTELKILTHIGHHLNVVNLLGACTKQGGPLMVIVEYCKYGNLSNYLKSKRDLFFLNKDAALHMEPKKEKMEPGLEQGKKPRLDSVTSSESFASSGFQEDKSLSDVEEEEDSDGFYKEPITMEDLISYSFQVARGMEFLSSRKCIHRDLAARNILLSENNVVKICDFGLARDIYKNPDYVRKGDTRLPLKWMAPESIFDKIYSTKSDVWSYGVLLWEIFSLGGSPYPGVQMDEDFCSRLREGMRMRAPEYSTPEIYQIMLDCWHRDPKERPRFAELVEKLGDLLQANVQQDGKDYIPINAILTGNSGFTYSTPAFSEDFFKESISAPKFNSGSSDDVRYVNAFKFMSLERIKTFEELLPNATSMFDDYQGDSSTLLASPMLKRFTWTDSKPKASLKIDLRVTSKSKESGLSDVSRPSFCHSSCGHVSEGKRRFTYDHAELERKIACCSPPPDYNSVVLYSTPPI

[7] = target: Tyrosine-protein kinase BTK (Homo sapiens, UniProt Q06187); assay type: functional
[8] = target: Fibroblast growth factor receptor 1 (Homo sapiens, UniProt P11362); assay type: functional
[9] = target: Glycogen synthase kinase-3 alpha (Homo sapiens, UniProt P49840); assay type: functional;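 note: GSK3A result taken from a broad kinome-wide kinase panel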
[10] = target: Vascular endothelial growth factor receptor 2 (Homo sapiens, UniProt P35968); assay type: functional
[11] = target: Ribosomal protein S6 kinase alpha-3 (Homo sapiens, UniProt P51812); assay type: functional;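 note: measured within a kinome-wide profiling panel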
[12] = target: Macrophage-stimulating protein receptor (Homo sapiens, UniProt Q04912); assay: Navigating the Kinome. Panel member name: MST1R; assay type: functional
Sequence of Macrophage-stimulating protein receptor (Q04912 25-304 limits assumed): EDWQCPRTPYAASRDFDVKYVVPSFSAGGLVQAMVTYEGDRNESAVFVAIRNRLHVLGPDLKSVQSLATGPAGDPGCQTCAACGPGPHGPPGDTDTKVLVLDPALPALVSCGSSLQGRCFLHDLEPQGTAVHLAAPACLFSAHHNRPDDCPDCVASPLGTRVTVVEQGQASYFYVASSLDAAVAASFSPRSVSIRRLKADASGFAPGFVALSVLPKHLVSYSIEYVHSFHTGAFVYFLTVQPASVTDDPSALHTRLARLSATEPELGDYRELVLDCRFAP
Sequence of Macrophage-stimulating protein receptor (Q04912 310-1400 limits assumed): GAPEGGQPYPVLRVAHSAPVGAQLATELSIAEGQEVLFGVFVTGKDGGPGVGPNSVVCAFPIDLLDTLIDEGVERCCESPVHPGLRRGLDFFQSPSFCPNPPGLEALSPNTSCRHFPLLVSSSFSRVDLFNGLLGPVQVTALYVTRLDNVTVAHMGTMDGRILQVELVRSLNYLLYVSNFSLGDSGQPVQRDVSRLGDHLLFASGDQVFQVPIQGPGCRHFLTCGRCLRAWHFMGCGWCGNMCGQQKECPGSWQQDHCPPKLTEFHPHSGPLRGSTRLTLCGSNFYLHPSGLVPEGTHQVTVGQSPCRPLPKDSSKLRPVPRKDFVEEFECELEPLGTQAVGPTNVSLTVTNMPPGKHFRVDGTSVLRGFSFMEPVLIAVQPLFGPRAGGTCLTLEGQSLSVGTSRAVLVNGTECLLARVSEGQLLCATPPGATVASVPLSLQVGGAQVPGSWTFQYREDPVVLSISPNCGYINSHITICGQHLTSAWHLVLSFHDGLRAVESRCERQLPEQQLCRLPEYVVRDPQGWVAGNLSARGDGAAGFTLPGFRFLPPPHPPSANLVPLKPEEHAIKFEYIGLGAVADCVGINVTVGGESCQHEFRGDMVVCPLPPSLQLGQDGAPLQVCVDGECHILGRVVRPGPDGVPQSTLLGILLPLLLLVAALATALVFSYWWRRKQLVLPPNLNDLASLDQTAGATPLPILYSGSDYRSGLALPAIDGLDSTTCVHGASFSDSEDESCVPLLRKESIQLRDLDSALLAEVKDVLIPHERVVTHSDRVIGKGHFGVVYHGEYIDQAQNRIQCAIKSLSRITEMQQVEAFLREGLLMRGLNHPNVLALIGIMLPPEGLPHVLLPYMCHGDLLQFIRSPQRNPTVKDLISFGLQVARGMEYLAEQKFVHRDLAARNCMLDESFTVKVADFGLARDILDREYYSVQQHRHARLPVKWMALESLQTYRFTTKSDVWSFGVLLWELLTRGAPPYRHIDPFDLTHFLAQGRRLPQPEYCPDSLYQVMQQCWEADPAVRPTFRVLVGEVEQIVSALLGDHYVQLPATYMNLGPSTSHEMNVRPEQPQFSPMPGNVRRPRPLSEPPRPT

[13] = target: Mitogen-activated protein kinase 9 (Homo sapiens, UniProt P45984); assay type: functional;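 note: value from a kinome panel profiling assay, MAPK9 panel entry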
[14] = target: Cyclin-dependent kinase 9 (Homo sapiens, UniProt P50750); assay type: functional;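 note: value from the CDK9 entry of a kinome-spanning kinase panel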
[15] = target: Death-associated protein kinase 3 (Homo sapiens, UniProt O43293); assay type: functional;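 note: measured as one member of a kinome-wide profiling panel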
Sequence of Death-associated protein kinase 3 (O43293 whole entry): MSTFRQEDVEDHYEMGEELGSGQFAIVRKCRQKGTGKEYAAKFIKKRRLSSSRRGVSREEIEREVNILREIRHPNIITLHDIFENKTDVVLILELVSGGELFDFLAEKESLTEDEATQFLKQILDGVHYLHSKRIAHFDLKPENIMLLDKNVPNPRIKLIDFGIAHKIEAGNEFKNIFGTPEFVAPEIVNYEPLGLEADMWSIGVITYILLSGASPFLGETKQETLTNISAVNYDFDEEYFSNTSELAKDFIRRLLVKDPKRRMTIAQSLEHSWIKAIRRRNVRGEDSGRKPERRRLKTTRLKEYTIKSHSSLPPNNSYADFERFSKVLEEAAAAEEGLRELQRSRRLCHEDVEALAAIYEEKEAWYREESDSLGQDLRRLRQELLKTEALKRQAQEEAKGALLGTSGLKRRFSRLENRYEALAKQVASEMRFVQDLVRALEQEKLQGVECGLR

[16] = target: T1, Cytochrome P450 1A2 (Homo sapiens, UniProt P05177);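 note: PubChem cytochrome P450 panel assay, CYP1A2 panel member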
T1 sequence (P05177 whole entry): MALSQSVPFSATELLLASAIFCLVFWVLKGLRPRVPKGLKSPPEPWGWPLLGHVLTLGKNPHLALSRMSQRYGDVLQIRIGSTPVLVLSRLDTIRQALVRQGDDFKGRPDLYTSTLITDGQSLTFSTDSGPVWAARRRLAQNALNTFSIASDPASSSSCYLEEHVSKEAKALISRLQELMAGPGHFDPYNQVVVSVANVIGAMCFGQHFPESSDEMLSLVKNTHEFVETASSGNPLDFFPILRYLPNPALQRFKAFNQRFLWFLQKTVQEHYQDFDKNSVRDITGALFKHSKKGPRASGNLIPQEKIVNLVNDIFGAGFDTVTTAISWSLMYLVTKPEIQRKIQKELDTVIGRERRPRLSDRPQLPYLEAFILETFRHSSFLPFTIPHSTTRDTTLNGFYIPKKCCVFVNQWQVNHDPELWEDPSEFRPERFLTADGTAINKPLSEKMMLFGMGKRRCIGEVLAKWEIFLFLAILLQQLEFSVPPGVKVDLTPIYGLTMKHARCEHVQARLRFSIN

[17] = target: BDNF/NT-3 growth factors receptor (Homo sapiens, UniProt Q16620); assay type: functional;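 note: NTRK2 measured as one member of a broad kinome-wide kinase profiling panel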
Sequence of BDNF/NT-3 growth factors receptor (Q16620 whole entry): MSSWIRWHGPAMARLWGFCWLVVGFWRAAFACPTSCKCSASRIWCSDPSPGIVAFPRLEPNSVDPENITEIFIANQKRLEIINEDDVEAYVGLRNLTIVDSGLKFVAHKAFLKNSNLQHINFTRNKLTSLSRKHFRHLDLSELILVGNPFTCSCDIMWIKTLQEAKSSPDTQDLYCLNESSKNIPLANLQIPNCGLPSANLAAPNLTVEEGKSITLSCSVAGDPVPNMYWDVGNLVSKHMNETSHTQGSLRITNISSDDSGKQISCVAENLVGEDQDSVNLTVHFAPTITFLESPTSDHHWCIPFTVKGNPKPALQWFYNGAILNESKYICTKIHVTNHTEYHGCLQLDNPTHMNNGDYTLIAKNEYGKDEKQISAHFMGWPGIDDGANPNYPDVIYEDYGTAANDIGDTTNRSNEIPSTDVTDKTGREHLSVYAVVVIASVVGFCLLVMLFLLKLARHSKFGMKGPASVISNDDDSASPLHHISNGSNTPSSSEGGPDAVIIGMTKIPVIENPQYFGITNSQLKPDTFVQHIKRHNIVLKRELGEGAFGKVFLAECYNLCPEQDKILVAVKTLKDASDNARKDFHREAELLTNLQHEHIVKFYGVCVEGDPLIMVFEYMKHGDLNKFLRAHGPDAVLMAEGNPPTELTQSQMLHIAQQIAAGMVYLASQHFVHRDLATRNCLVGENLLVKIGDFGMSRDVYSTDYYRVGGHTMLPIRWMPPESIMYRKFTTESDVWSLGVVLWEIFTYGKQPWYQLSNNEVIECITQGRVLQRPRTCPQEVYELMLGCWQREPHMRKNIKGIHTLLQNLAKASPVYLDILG

NC(=O)c1ccc(-c2nc(-c3ccc4c(c3)OCO4)c(-c3ccccn3)[nH]2)cc1 [SB-431542]
Ki [1]: > 3.98 µM (inactive)
Ki [2]: > 3.98 µM (inactive)
Ki [3]: > 3.16 µM (inactive)
Ki [4]: > 5.01 µM (inactive)
Ki [5]: > 2.51 µM (inactive)
Ki [6]: > 3.98 µM (inactive)
Ki [7]: > 6.31 µM (inactive)
Ki [8]: > 3.98 µM (inactive)
Ki [9]: > 3.98 µM (inactive)
Ki [10]: > 2.51 µM (inactive)
Ki [11]: > 3.98 µM (inactive)
Ki [12]: > 3.98 µM (inactive)
Ki [13]: > 3.98 µM (inactive)
Ki [14]: > 1.58 µM (inactive)
Ki [15]: > 5.01 µM (inactive)
AC50 [16]: 15.8 µM (inconclusive)
Ki [17]: > 3.98 µM (inactive)

From ChEMBL document CHEMBL1201862, “PubChem BioAssay data set” (2004)
